Tests used:
MV4-11 cells = assay: MV4-11 cellular proliferative assay, Assay Format A (CellTiter-Glo, 120 h); format: cell-based; details: Homo sapiens, Assay format A, 120 h, read-out: IC50 (MV4-11 cellular proliferative assay)
Procedure: An MV4-11 proliferation assay was used to test the ability of compounds to reduce cell viability. MV4-11 cells (ATCC #CRL9591) were grown in IMDM medium (11510596, Gibco) supplemented with 10% fetal bovine serum (F7524, Gibco) and 1% Penicillin/Streptomycin (15140-122, Gibco) at 37° C. with 5% CO2. Cells were seeded in 384-well Elplasia plates (4447, Corning) at a density of 50 cells/well and treated with vehicle (DMSO) or compounds (10 serial semi-log dilutions, 30 μM as top concentration).
After 120 hours of treatment, cells were incubated for 10 min at RT with the CellTiter-Glo (CTG) reagent (G7571, Promega). Measurement of the luminescence signal was performed on a microplate reader (Ensight, PerkinElmer). CTG reagent measures the amount of ATP, which is directly proportional to the number of cells, to determine the number of viable cells in culture.
The data were analysed as follows:
[formula] • where x is the measured raw signal value of a well, (cr) is the median of the measured signal values for the Central Reference (DMSO) wells on a plate, (sr) is the median of the measured signal values for the Scale Reference (reference compound) wells on a plate.
[formula] • where the experimental set-up assumes the Hill parameters in certain ranges: S0~Central Reference (CR) from normalization (=Bottom), Sinf~Scale Reference (SR) from normalization (=Top), nHill ~1, AC50~within the measured concentration range.

MLLT1 = target: T1, MLLT1 (Homo sapiens, UniProt Q03111); assay: MLLT1 degradation assay in MV4-11 cells (JESS, 24 h); format: cell-based; design: endogenous in cells; host or cells: MV4-11 (ATCC CRL-9591); details: vs DMSO control
T1 sequence (Q03111 1-559): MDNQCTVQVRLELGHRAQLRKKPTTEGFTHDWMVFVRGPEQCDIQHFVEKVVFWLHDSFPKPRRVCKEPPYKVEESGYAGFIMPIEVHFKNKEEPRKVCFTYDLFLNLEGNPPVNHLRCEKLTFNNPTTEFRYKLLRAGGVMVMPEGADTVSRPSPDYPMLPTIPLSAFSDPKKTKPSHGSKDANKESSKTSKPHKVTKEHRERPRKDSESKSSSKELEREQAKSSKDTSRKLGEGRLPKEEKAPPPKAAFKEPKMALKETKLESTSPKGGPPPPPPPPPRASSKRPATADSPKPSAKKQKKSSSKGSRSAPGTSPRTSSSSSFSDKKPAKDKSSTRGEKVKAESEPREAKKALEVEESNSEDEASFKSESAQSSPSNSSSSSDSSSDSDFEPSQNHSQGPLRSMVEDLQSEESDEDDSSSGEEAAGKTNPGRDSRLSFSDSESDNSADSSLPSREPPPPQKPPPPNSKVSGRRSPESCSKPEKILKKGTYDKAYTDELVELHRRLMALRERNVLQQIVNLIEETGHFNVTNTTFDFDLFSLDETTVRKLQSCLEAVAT
Procedure: MLLT1 degradation efficacy of compounds was tested in an automated chemiluminescent detection system (JESS, Cat #004-650). MV4-11 (#CRL-9591, ATCC) cells were seeded at a density of 1.2 million cells/well in a non-treated 6-well cell culture plate in 2.4 mL of complete medium (IMDM+10% FBS+1× Penicillin-Streptomycin). 10 mM DMSO stocks were prepared, and cells were treated with three concentrations of test compounds viz. 1000, 100 and 10 nM at a final DMSO concentration of 0.1% and incubated for 24 h at 37° C., 5% CO2. Post incubation, cells were centrifuged, washed with HBSS and lysed in 70 μL of RIPA buffer supplemented with Protease inhibitors (sc-24948; Santa Cruz). Subsequently, protein estimation was done using BCA protein assay kit (23225; Pierce). 4 ug protein lysate (4 uL of 1 ug/uL lysate) was loaded into each well of the JESS cartridge (SM-W001; Bio-techne) and the JESS run was performed using 1:900 dilution of anti-human MLLT1 antibody (14893; Cell signaling technology) and 1:1200 dilution of anti-human GAPDH antibody (2118; Cell signaling technology) with anti-rabbit secondary detection module (DM-001; Bio-Techne). Post run, data were analysed using “Compass for SW” software for chemiluminescent detection. The peak area for each band was used for the calculation of MLLT1 degradation with respect to DMSO control. Data is shown as “MLLT1% degradation”. • Category A: A≥75% degradation • Category B: 50%≤B<75% degradation • Category C: 25%≤C<50% degradation • Category D: D<25% degradation

| SMILES | IC50 (MV4-11 cells) | MLLT1% Degradation @ 0.01 μM (MLLT1) | MLLT1% Degradation @ 0.1 μM (MLLT1) | MLLT1% Degradation @ 1 μM (MLLT1) |
| --- | --- | --- | --- | --- |
| Cc1nn(CCCCN2CCN(c3ccc4c(c3)C(=O)N(C3CCC(=O)NC3=O)C4=O)CC2)c2cc(C(=O)Nc3cc4[nH]c([C@H]5CCCN5C)cc4cn3)ccc12 (stereo partly drawn) [Example 19, 1-(4-{4-[2-(2,6-dioxopiperidin-3-yl)-1,3-dioxoisoindol-5-yl]piperazin-1-yl}butyl)-3-methyl-N-{2-[(2R)-1-methylpyrrolidin-2-yl]-1H-pyrrolo[3,2-c]pyridin-6-yl}indazole-6-carboxamide] | < 0.1 µM |  |  |  |
| Cc1nn(CCCCCCCCOc2ccc3c(c2)C(=O)N(C2CCC(=O)NC2=O)C3=O)c2cc(C(=O)Nc3cc4[nH]c([C@H]5CCCN5C)cc4cn3)ccc12 (stereo partly drawn) [Example 8, 1-(8-{[2-(2,6-dioxopiperidin-3-yl)-1,3-dioxoisoindol-5-yl]oxy}octyl)-3-methyl-N-{2-[(2R)-1-methylpyrrolidin-2-yl]-1H-pyrrolo[3,2-c]pyridin-6-yl}indazole-6-carboxamide] | < 0.1 µM |  |  |  |
| Cc1nn(CCCNc2cccc3c2C(=O)N(C2CCC(=O)NC2=O)C3=O)c2cc(C(=O)Nc3cc4[nH]c([C@H]5CCCN5C)cc4cn3)ccc12 (stereo partly drawn) [Example 13, 1-(3-((2-(2,6-dioxopiperidin-3-yl)-1,3-dioxoisoindolin-4-yl)amino)propyl)-3-methyl-N-(2-((R)-1-methylpyrrolidin-2-yl)-1H-pyrrolo[3,2-c]pyridin-6-yl)-1H-indazole-6-carboxamide] | < 0.1 µM |  |  |  |
| Cc1nn(CCCCCCCC#Cc2cc3c(cc2F)C(=O)N(C2CCC(=O)NC2=O)C3)c2cc(C(=O)Nc3cc4[nH]c([C@H]5CCCN5C)cc4cn3)ccc12 (stereo partly drawn) [Example 60, 1-(9-(2-(2,6-dioxopiperidin-3-yl)-6-fluoro-1-oxoisoindolin-5-yl)non-8-yn-1-yl)-3-methyl-N-(2-((R)-1-methylpyrrolidin-2-yl)-1H-pyrrolo[3,2-c]pyridin-6-yl)-1H-indazole-6-carboxamide] |  | C (Category C: 25%≤C<50% degradation) | B (Category B: 50%≤B<75% degradation) | A (Category A: A≥75% degradation) |
| Cc1nn(CCOCCCCC#Cc2cccc3c2CN(C2CCC(=O)NC2=O)C3=O)c2cc(C(=O)Nc3cc4[nH]c([C@H]5CCCN5C)cc4cn3)ccc12 (stereo partly drawn) [Example 50, 1-(2-((6-(2-(2,6-dioxopiperidin-3-yl)-1-oxoisoindolin-4-yl)hex-5-yn-1-yl)oxy)ethyl)-3-methyl-N-(2-((R)-1-methylpyrrolidin-2-yl)-1H-pyrrolo[3,2-c]pyridin-6-yl)-1H-indazole-6-carboxamide] |  | A (Category A: A≥75% degradation) | A (Category A: A≥75% degradation) | A (Category A: A≥75% degradation) |
| Cc1nn(CCCCCCC2CCN(c3cccc(C(=O)N[C@H]4CCC(=O)NC4=O)n3)CC2)c2cc(C(=O)Nc3cc4[nH]c([C@H]5CCCN5C)cc4cn3)ccc12 [Example 73, 1-(6-(1-(6-(((S)-2,6-dioxopiperidin-3-yl)carbamoyl)pyridin-2-yl)piperidin-4-yl)hexyl)-3-methyl-N-(2-((R)-1-methylpyrrolidin-2-yl)-1H-pyrrolo[3,2-c]pyridin-6-yl)-1H-indazole-6-carboxamide] |  | B (Category B: 50%≤B<75% degradation) | A (Category A: A≥75% degradation) | A (Category A: A≥75% degradation) |
| Cc1nn(CCCCN2CCN(c3ccc4c(c3)C(=O)N(C3CCC(=O)NC3=O)C4=O)CC2)c2cc(C(=O)Nc3cc4[nH]c([C@@H]5CCCN5C)cc4cn3)ccc12 (stereo partly drawn) [Example 20, 1-(4-{4-[2-(2,6-dioxopiperidin-3-yl)-1,3-dioxoisoindol-5-yl]piperazin-1-yl}butyl)-3-methyl-N-{2-[(2S)-1-methylpyrrolidin-2-yl]-1H-pyrrolo[3,2-c]pyridin-6-yl}indazole-6-carboxamide] |  | C (Category C: 25%≤C<50% degradation) | C (Category C: 25%≤C<50% degradation) | A (Category A: A≥75% degradation) |
| Cc1nn(CCOCCN2CCN(c3cc4c(cc3F)C(=O)N(C3CCC(=O)NC3=O)C4=O)CC2)c2cc(C(=O)Nc3cc4[nH]c([C@H]5CCCN5C)cc4cn3)ccc12 (stereo partly drawn) [Example 24, 1-(2-(2-(4-(2-(2,6-dioxopiperidin-3-yl)-6-fluoro-1,3-dioxoisoindolin-5-yl)piperazin-1-yl)ethoxy)ethyl)-3-methyl-N-(2-((R)-1-methylpyrrolidin-2-yl)-1H-pyrrolo[3,2-c]pyridin-6-yl)-1H-indazole-6-carboxamide] |  |  | B (Category B: 50%≤B<75% degradation) | A (Category A: A≥75% degradation) |
| Cc1nn(CCCCCCCCNc2cccc3c2C(=O)N(C2CCC(=O)NC2=O)C3=O)c2cc(C(=O)Nc3cc4[nH]c([C@@H]5CCCN5C)cc4cn3)ccc12 (stereo partly drawn) [Example 4, 1-(8-{[2-(2,6-dioxopiperidin-3-yl)-1,3-dioxoisoindol-4-yl]amino}octyl)-3-methyl-N-{2-[(2S)-1-methylpyrrolidin-2-yl]-1H-pyrrolo[3,2-c]pyridin-6-yl}indazole-6-carboxamide] |  | D (Category D: D<25% degradation) | D (Category D: D<25% degradation) | B (Category B: 50%≤B<75% degradation) |
| Cc1nn(CCCCCCCC#Cc2cccc(C3CCC(=O)NC3=O)n2)c2cc(C(=O)Nc3cc4[nH]c([C@H]5CCCN5C)cc4cn3)ccc12 (stereo partly drawn) [Example 62, 1-(9-(6-(2,6-dioxopiperidin-3-yl)pyridin-2-yl)non-8-yn-1-yl)-3-methyl-N-(2-((R)-1-methylpyrrolidin-2-yl)-1H-pyrrolo [3,2-c]pyridin-6-yl)-1H-indazole-6-carboxamide] |  | B (Category B: 50%≤B<75% degradation) | B (Category B: 50%≤B<75% degradation) | A (Category A: A≥75% degradation) |
| Cc1nn(CCCCCC#Cc2cccc(C(=O)NC3CCC(=O)NC3=O)c2F)c2cc(C(=O)Nc3cc4[nH]c([C@H]5CCCN5C)cc4cn3)ccc12 (stereo partly drawn) [Example 34, 1-(7-(3-((2,6-dioxopiperidin-3-yl)carbamoyl)-2-fluorophenyl)hept-6-yn-1-yl)-3-methyl-N-(2-((R)-1-methylpyrrolidin-2-yl)-1H-pyrrolo[3,2-c]pyridin-6-yl)-1H-indazole-6-carboxamide] |  | D (Category D: D<25% degradation) | B (Category B: 50%≤B<75% degradation) | A (Category A: A≥75% degradation) |
| Cc1c(C#CCCCCCn2nc(C)c3ccc(C(=O)Nc4cc5[nH]c([C@H]6CCCN6C)cc5cn4)cc32)cccc1C(=O)NC1CCC(=O)NC1=O (stereo partly drawn) [Example 35, 1-(7-(3-((2,6-dioxopiperidin-3-yl)carbamoyl)-2-methylphenyl)hept-6-yn-1-yl)-3-methyl-N-(2-((R)-1-methylpyrrolidin-2-yl)-1H-pyrrolo[3,2-c]pyridin-6-yl)-1H-indazole-6-carboxamide] |  | C (Category C: 25%≤C<50% degradation) | D (Category D: D<25% degradation) | B (Category B: 50%≤B<75% degradation) |
